Consider four molecules from US8222294B2, “Combinations of an anti emetic agent and an enkephalinase inhibitor” (Bioproject, priority 2004, dated 2012).

“Also recorded” adds a separate entry of the source. Read-outs that look alike come from different tables or passages of the source.

Series [1] concerns castor oil-induced diarrhoea. Nature of the series: castor oil-induced diarrhoea in rats. Format: in vivo. The method, then:
The outstanding activity of the combinations of the invention was evidenced on an animal model of experimental diarrhoea. A combination of the invention was evaluated on the castor oil-induced diarrhoea in rats, according to Niemegeers et al. ([…]. (Drug Res), 1974, 24 No. 10). Rats received ondansetron (0.1 mg/kg, p.o.) and racecadotril (40 mg/kg, p.o.) administered together. […] As comparative examples, ondansetron and racecadotril were also administered alone at the same dosages.

For series [2], the system named is L.P.S. typhimurium-induced diarrhoea. Nature of the series: L.P.S. typhimurium-induced diarrhoea. The series is classed as in vivo. Particulars: dexecadotril 0.1 mg/kg alone.
Another series has as its system E. coli toxins. Particulars: cited from earlier work.
The subject of series [3] is abdominal pain (abdominal cramps elicited by rectal distention). Nature of the series: abdominal cramps elicited by rectal distention in trinitrobenzenesulfonic acid-pretreated rats. Format: in vivo. The note with it: administered alone. From the text:
The combinations of the invention involve a synergy against abdominal pain as the authors of the present invention have discovered using a classical model of abdominal pain in rodents (Morteau et al., Gastroenterology, 1993, 104, 47). Rats were […] trinitrobenzenesulfonic acid to induce intestinal inflammation and pain sensitivity, as assessed by evaluation of the abdominal cramps elicited by rectal distention.

Series [4] concerns cytochrome P 450 subtypes. As to the kind of experiment: interaction with cytochrome P 450 subtypes. The series is classed as in vitro ADME.
A further series is described as follows: drug metabolism pathway. Format: in vitro ADME. Particulars: enkephalinase inhibitors.
For series [5] the following is noted: in vivo; cited from earlier work.
The conditions of series [6]: 5-HT3 receptor inhibitors; cited from earlier work.
For a further series, the system named is gastroenteritis. The note with it: cited from earlier work.
The test system of another series is Salmonella. Particulars: cited from earlier work.
Another series concerns abdominal cramps. Particulars: via protection of endogenous opioid peptides; cited from earlier work.
Another series deals with colonic transit. As to the kind of experiment: colonic transit in rodents. Format: in vivo. Particulars: enkephalinase inhibitor alone. The source says:
This effect is blocked by co-administration of ondansetron. Since the transit is already strongly accelerated in gastroenteritis, the combinations of the present invention allow the antisecretory pro-absorptive activity of enkephalinase inhibitors to be exerted for a longer time upon the watery intestinal lumen content, thus resulting in a synergic antidiarrheal effect.

Setting [7] is: racecadotril 40 mg/kg p.o. alone.

With `CC(=O)SC[C@H](Cc1ccccc1)C(=O)NCC(=O)OCc1ccccc1` [dexecadotril], the antidiarrheal activity entry was “an antidiarrheal activity; also recorded: only partially inactive” in series [1] (dexecadotril 0.1 mg/kg alone) and “an antidiarrheal activity” in [2]. For the same molecule, in the series with E. coli toxins, the antisecretory activity result is “active”. Moreover, in [3], the “prevention of pain manifestations” value is on record as “partially prevent”. In addition, the “interaction with cytochrome P 450 subtypes” value in series [4] is “do not significantly interact”. Moreover, in the series “drug metabolism pathway”, the metabolism pathway entry was “mainly occurs via S-methylation”.

Regarding `CN1C2CCCC1CC(NC(=O)c1nn(C)c3ccccc13)C2` (stereo not drawn) [granisetron], in [5], the plasma half-life is roughly 3 h. The metabolism pathway entry in series [6] is “oxidation by various cytochrome P 450 subtypes”.

With `Cc1nccn1CC1CCc2c(c3ccccc3n2C)C1=O` (stereo not drawn) [ondansetron], the antidiarrheal activity entry in series [1] (ondansetron 0.1 mg/kg p.o. alone) and in series [1] (ondansetron 1 mg/kg alone) was “inactive” throughout. The plasma half-life in series [5] was roughly 3 h. Besides, in the series with E. coli toxins, the antisecretory activity entry is “not”. Further, in the series with gastroenteritis, the diarrhoea result is “not significantly affected or even increased; also recorded: fail to affect diarrhoea; also recorded: increase its duration”. For the same molecule, the emesis result in the series on gastroenteritis (particularly in children) is on record as “significantly reduced”. Moreover, the “prevention of pain manifestations” value in series [3] is recorded as “partially prevent”. Further, the metabolism pathway entry in series [6] is “oxidation by various cytochrome P 450 subtypes”. For the same molecule, the prevention of hypersecretion entry with Salmonella is listed as “prevents the hypersecretion”.

For the molecule `CC(=O)SCC(Cc1ccccc1)C(=O)NCC(=O)OCc1ccccc1` (stereo not drawn) [racecadotril], in series [1] (setting [7]), the duration of protection came to 4 h and the protection against diarrhoea entry is given as “partial protection”. Besides, the antinociceptive effect result in the series on abdominal cramps is “partial antinociceptive effect”. Further, in series [5], the plasma half-life is roughly 3 h. The “effect on colonic transit” value in the series with colonic transit is “tend to accelerate colonic transit”. In addition, in the series with E. coli toxins, the antisecretory activity entry is given as “active”. Moreover, the abdominal pain entry in the series on gastroenteritis is “significantly diminished”. Further, the “prevention of pain manifestations” value in series [3] was “partially prevent”. For the same molecule, the “interaction with cytochrome P 450 subtypes” value in [4] was “do not significantly interact”. Besides, in the series “drug metabolism pathway”, the metabolism pathway result is recorded as “mainly occurs via S-methylation”.
